Measured values published in a melting point compilation (Tetko et al.).

Row | melting point [°C] | Structure (SMILES)
1 | 141 | CCCCC(NC(=O)OCC1c2ccccc2-c2ccccc21)C(=O)O (configuration not stated)
2 | 47 | COC(=O)c1ccccc1OCc1ccccc1
3 | 182 to 183 | CC(=O)N1N=C2c3ccccc3CCC2C1c1ccc(Cl)cc1 (configuration not stated)
4 | 212 to 214 | COc1ccccc1N1CCN(C(=O)c2ccc(N)cc2)CC1
5 | 28 | CC(=O)c1ccc(C)cc1
6 | 251 to 252 | C/C(=N\c1cc(C)ccc1O)c1c(O)c2ccccc2n(-c2ccccc2)c1=O
7 | 210 | CC(C)(C)N(NC(=O)c1ccccc1)C(=O)c1c(F)cccc1Cl
8 | 260 | O=C(O)c1cccc2cccc(C(=O)O)c12
9 | 113 | COc1ccc(C(=O)OCCOc2ccc(C=CC(=O)c3ccccc3)cc2)cc1
10 | 106 | CCNC(=O)COC(=O)c1ccccc1
11 | 171 to 175 | c1ccc([C@@H]2COC(c3cccc(C4=N[C@H](c5ccccc5)CO4)n3)=N2)cc1
12 | 293 | Cn1c(=O)c(C2=NNC(=O)C2=CNc2ccc(Br)cc2)c(O)c2ccccc21
13 | 174 to 176 | Nc1c(S(=O)(=O)c2ccccc2)csc1C(=O)O
14 | 136 | Cc1cccc(N/N=C2/C(=O)N(c3ccccc3)N=C2C(F)(F)F)c1C
15 | 57 to 59 | OCc1cccc(Oc2ccccn2)c1
16 | 197 | O=C(O)c1cc2cc(OCc3ccccc3)ccc2[nH]1
17 | 245 to 248 | O=C1C=CC(=O)N1c1ccccc1N1C(=O)C=CC1=O
18 | 192 | Nc1c(CN2CCOCC2)c(=O)oc2ccccc12

Row | melting point [°C] | Structure (SMILES)
19 | 154 to 155 | CC1(c2ccccc2)CC(C(=NOCC(=O)c2ccccc2)c2cc3ccccc3o2)C1 (configuration not stated)
20 | 107 to 108 | CN(N)c1cnc2ccccc2n1
21 | 18.7 | COC(=O)c1ccccn1
22 | 293 | CC(C)Cn1cnc2c(N)nc3ccccc3c21
23 | 133 to 136 | NS(=O)(=O)c1ccc(Sc2ccc(Cl)cc2)s1
24 | 174 | O=C(c1ccccc1)c1cc(C(=O)c2ccccc2)c([N+](=O)[O-])cc1[N+](=O)[O-]
25 | 132 | FC(F)(F)c1cccc(C(c2ccccc2)(c2ccccc2)n2cncn2)c1
26 | 198 | CC(C)(C)N(NC(=O)c1ccccc1)C(=O)c1c(Cl)cccc1Cl
27 | 93 | CN1C(=O)c2ccccc2C1OC(=O)c1ccccc1 (configuration not stated)
28 | 158 | O=C(NC(Cc1ccc(Br)s1)C(=O)O)OCC1c2ccccc2-c2ccccc21 (configuration not stated)
29 | 78 | OC1OCC(OCc2ccccc2)C(OCc2ccccc2)C1OCc1ccccc1 (configuration not stated)
30 | 253 to 255 | O=C1OC2(c3ccc(Cl)cc3Oc3cc(Cl)ccc32)c2ccccc21
31 | 102 | O=C(c1ccccc1)c1ccc(Cl)c(Cl)c1
32 | 129 | Cc1c(C)c2c3ccccc3ccc2c2ccccc12
33 | 215 | O=[N+]([O-])c1ccccc1/C=C/c1nc2ccccc2[nH]1
34 | 273 to 275 | Nc1c([N+](=O)[O-])cnc2ccccc12
35 | 189 | FC(F)(F)c1ccc2c(c1)Nc1ccccc1S2

Second part, the molecule before the results:

Row | Structure (SMILES) | melting point [°C]
36 | N#Cc1ccc(C(Cl)C(Cl)c2cccc(C(Cl)C(Cl)c3ccc(C#N)cc3[N+](=O)[O-])c2)c([N+](=O)[O-])c1 (configuration not stated) | 248
37 | Cc1csc(C(=O)Cl)c1Cl | 57 to 58
38 | NC(=NO)c1ccccc1 | 75 to 77
39 | CC(=O)c1cc(Cl)ccc1Cl | 12
40 | Sc1c(Cl)c(Cl)cc(Cl)c1Cl | 105 to 107
41 | CNC(=O)OCc1cccc(COC(=O)NC)n1 | 136
42 | Nc1[nH]ncc1-c1ccc(F)cc1 | 174 to 175
43 | O=C(O)c1cn2ccsc2n1 | 233 to 234
44 | C1=CC2=CC=C(O2)C2=CC=C(C=CC3=CC=C(O3)C3=CC=C1O3)O2 | 270 to 271
45 | CCCCCCCCCCCCCc1ccccc1 | 10
46 | O=C(O)CCc1cc(I)c(Oc2ccc(O)c(I)c2)c(I)c1 | 200
47 | CC(C)[Si](Cl)(Cl)Cl | -87.7
48 | CN(c1c(F)c(F)c(C#N)c(F)c1F)N(O)O | 53
49 | N#CC1=C(N)Oc2c(c(C(F)(F)F)nn2-c2ccccc2)C1c1ccccc1 (configuration not stated) | 191
50 | CN(C)Cc1ncccc1O | 55 to 60
51 | FC(F)(I)C(F)(F)C(F)(F)C(F)(F)I | -9
52 | O=C(O)Cc1c(F)c(F)c(F)c(F)c1F | 109
53 | CCCCC(O)C(O)CO (configuration not stated) | 92 to 97
54 | O=C(O)c1cc(Br)cc(Br)c1 | 224 to 226
55 | CC1C(C(=O)NN)C1C(=O)NN (configuration not stated) | 242 to 245
56 | Cc1ccc2sc(C=O)cc2c1 | 98 to 99
57 | CCOC(=O)c1c(C)oc(NC(=O)Nc2cccc(C(F)(F)F)c2)c1C(=O)OCC | 153 to 155
58 | Clc1cccc2cccnc12 | -20
59 | COC(=O)CCC(C)C1CCC2C3C(OC(C)=O)CC4CC(OC(C)=O)CCC4(C)C3CCC12C (configuration not stated) | 185 to 186
60 | C=C1CCC(=O)O1 | 18
61 | O=Cc1ccc(CBr)cc1 | 99 to 100

Row | Structure (SMILES) | melting point [°C]
62 | NS(=O)(=O)c1ccccc1Cl | 190
63 | CCOC(=O)c1c[nH]c2c(c1=O)CNN2C | 138 to 140
64 | Cc1ccccc1NC(=O)c1cnc(C(C)(C)C)c(Cl)n1 | 115
65 | Nc1ccc([N+](=O)[O-])cc1C(=O)O | 278
66 | CC1(C)CCCCC1=O | -20.5
67 | CCC(C)(C)S | -104
68 | CS(=O)(=O)N1CCNCC1 | 99 to 100
69 | CC(=O)c1ccc(C)c(F)c1 | 33
70 | CC1(C(=O)O)CCC2(C)CCC3(C)C(=CC(=O)C4C5(C)CCC(OC(=O)CCC(=O)O)C(C)(C)C5CCC43C)C2C1 (configuration not stated) | 292
71 | Cc1ccc2ccc(=O)oc2c1 | 128
72 | Cc1cc2ncc(C(=O)O)c(C)n2n1 | 250 to 251
73 | CCOC(=O)c1c(NC(=O)CCl)sc2c1CCCC2 | 115 to 117
74 | O=[N+]([O-])c1nc[nH]n1 | 212 to 214
75 | CC(C)(C)OC(=O)N1CCC[C@H]1CO | 61
76 | NNC(=O)c1cccc(F)c1 | 138 to 139
77 | CS(=O)(=O)c1scc(-c2ccccc2)c1C#N | 164 to 166
78 | O=C(Cl)c1cccc(F)c1 | -30
79 | CC1(C)OC(=O)C(=Cc2ccc(-c3ccc(Cl)cc3)o2)C(=O)O1 | 109
80 | Nc1c(Br)cc(Br)cc1C(=O)c1ccccc1 | 98
81 | Cc1ccc(Cl)c([N+](=O)[O-])c1 | 7
82 | O=P(O)(O)OCC(O)CO (configuration not stated) | -25
83 | O=C(Cl)C(=O)Cl | -12
84 | O=C1NC(=O)C(=Cc2ccc(-c3ccccc3Br)o2)C(=O)N1 | 255
85 | ClCC(Br)CBr (configuration not stated) | 6
86 | CC(=O)OC1CC2(O)C(CCC3(C)C(c4ccc(=O)oc4)CCC32O)C2(C)CCC(OC3OC(CO)C(O)C(O)C3O)C=C12 (configuration not stated) | 169
87 | CSc1nsc(SC)c1C(N)=O | 214 to 216
